{"source": "paper PMC9627400", "about": "(ACS applied materials & interfaces, 2022)", "origin": "cited, not measured here", "target": "IL-6", "details": "read-out: affinity; anti-IL-6 monoclonal antibody; cited from earlier work", "data": [{"substance": "siltuximab: an FDA-approved anti-IL-6 monoclonal antibody", "values": [{"measurement": "Kd", "result": 0.0117, "unit": "µM"}]}]}
